According to patent US20220089589A1, “SMALL MOLECULE DEGRADERS OF FKBP12 VIA RECRUITMENT OF VON HIPPEL-LINDAU E3 UBIQUITIN LIGASE (VHL) E3 UBIQUITIN LIGASE, AND USES IN dTAG SYSTEMS” (DANA-FARBER CANCER INSTITUTE, INC., priority 2019, published 2022):
Entries after “also recorded” stand apart in the source; their conditions may differ.

Assays:
Assay type in all cases: cell-based
[1] = system: pAKT; assay: Immunoblotting of PATU-8902 FKBP12^F36V-KRAS^G12V; KRAS^−/− clone (Example 8), AKT signaling; conditions: 50 or 500 nM, 4 hrs
Procedure: (§1) PATU-8902 FKBP12^F36V-KRAS^G12V; KRAS^−/− clone was plated in 6-well format, allowed to adhere overnight, and treated with 50 nM and 500 nM dTAG molecules for 4 hrs. Following treatment, cells were lysed in RIPA buffer on ice for 60 minutes. Lysates were clarified by centrifugation at 20,000×g for 10 minutes at 4° C. Immunoblotting was performed to determine changes in protein levels with an Odyssey CLx Imager. The indicated antibodies were employed including HA to monitor FKBP12^F36V-KRAS^G12V degradation, total and phosphorylated ERK to evaluate changes in ERK signaling, total and phosphorylated AKT to evaluate changes in AKT signaling and α-TUBULIN as a loading control.

[2] = system: LACZ-FKBP12^F36V; assay: Immunoblotting of PATU-8902 LACZ-FKBP12^F36V clone (Example 6); conditions: 50 or 500 nM, 4 hrs
Procedure: as §1, with “LACZ-FKBP12^F36V” for “FKBP12^F36V-KRAS^G12V; KRAS^−/−”, “HA (hemagglutinin)” for “HA”, “LACZ-FKBP12^F36V degradation” for “FKBP12^F36V-KRAS^G12V degradation, total and phosphorylated ERK to evaluate changes in ERK signaling, total and phosphorylated AKT to evaluate changes in AKT signaling”

[3] = system: PATU-8902 FKBP12^F36V-KRAS^G12V; KRAS^−/− clone; assay: Cell transformation by growth in ultra-low attachment conditions, PATU-8902 FKBP12^F36V-KRAS^G12V; KRAS^−/− clone (Example 13); conditions: 0.000063-2 μM, 120 hrs
Procedure: (§2) PATU-8902 LACZ-FKBP12^F36V or FKBP12^F36V-KRAS^G12V; KRAS^−/− clones were plated in 384-well format in ultra-low attachment conditions, allowed to form 3D-spheroids overnight, and treated with various dTAG molecules from compound stock plates using a JANUS® Workstation pin tool for 120 hrs. To measure cell transformation, Cell Tilter-Glo® was added to wells for 15 minutes at room temperature and luminescence was measured on an EnVision™ 2104 Multilabel Plate Reader.

[4] = system: pERK; assay: Immunoblotting of PATU-8902 FKBP12^F36V-KRAS^G12V; KRAS^−/− clone (Example 8), ERK signaling; conditions: 50 or 500 nM, 4 hrs
Procedure: as §1

[5] = system: PATU-8902 FKBP12^F36V-KRAS^G12V; KRAS^−/− clone; assay: Anti-proliferation via CellTiter-Glo, PATU-8902 FKBP12^F36V-KRAS^G12V; KRAS^−/− clone (Example 12); conditions: 0.000063-2 μM, 72 hrs
Procedure: as §2, with “format,” for “format in ultra-low attachment conditions,”, “adhere” for “form 3D-spheroids”, “72” for “120”, “viability,” for “transformation,”, “r.t.” for “room temperature”

[6] = system: FKBP12^F36V-KRAS^G12V; assay: Immunoblotting of PATU-8902 FKBP12^F36V-KRAS^G12V; KRAS^−/− clone (Example 8), HA; conditions: 50 or 500 nM, 4 hrs
Procedure: as §1

[7] = system: PATU-8902 FKBP12^F36V-KRAS^G12V; KRAS^−/− clone; assay: Anti-proliferation via CellTiter-Glo, PATU-8902 FKBP12^F36V-KRAS^G12V; KRAS^−/− clone (Example 11); conditions: 0.00063-20 μM, 72 hrs
Procedure: as §2, with “format,” for “format in ultra-low attachment conditions,”, “adhere” for “form 3D-spheroids”, “72” for “120”, “viability, CellTilter-Glo®” for “transformation, Cell Tilter-Glo®”, “r.t.” for “room temperature”

[8] = system: PATU-8902 LACZ-FKBP12^F36V clone; assay: Anti-proliferation via CellTiter-Glo, PATU-8902 LACZ-FKBP12^F36V control clone (Example 11); conditions: 0.00063-20 μM, 72 hrs
Procedure: as §2, with “format,” for “format in ultra-low attachment conditions,”, “adhere” for “form 3D-spheroids”, “72” for “120”, “viability, CellTilter-Glo®” for “transformation, Cell Tilter-Glo®”, “r.t.” for “room temperature”

[9] = system: NIH/3T3 cells expressing FKBP12^F36V-KRAS^G12V; assay: Anti-proliferation in NIH/3T3 cells expressing FKBP12^F36V-KRAS^G12V by ATPlite assay; conditions: 0.00063-20 μM, 72 hrs, NIH/3T3 expressing FKBP12^F36V-KRAS^G12V
Procedure: (§3) NIH/3T3 cells, that were mock transduced (control) or stably expressing with FKBP12^F36V-KRAS^G12V, were plated in 384-well format, allowed to adhere overnight, and treated with various dTAG molecules from compound stock plates using a JANUS® Workstation pin tool for 72 hrs. To measure cell viability, ATPlite™ was added to wells for 15 minutes at room temperature and luminescence was measured on an EnVision™ 2104 Multilabel Plate Reader.

[10] = system: control NIH/3T3 cells; assay: Anti-proliferation in mock transduced (control) NIH/3T3 cells by ATPlite assay; conditions: 0.00063-20 μM, 72 hrs, at high doses
Procedure: as §3

[11] = system: FKBP12^F36V-KRAS^G12V; assay: Immunoblotting of 293T^WT FKBP12^F36V-KRAS^G12V cells; conditions: 50 or 500 nM, 24 hrs
Procedure: (§4) 293T^WT or 293T^VHL−/− FKBP12^F36V-KRAS^G12V cells were plated in 6-well format, allowed to adhere overnight, and treated with 50 nM and 500 nM dTAG molecules for 24 hrs. Following treatment, cells were lysed in RIPA buffer on ice for 60 minutes. Lysates were clarified by centrifugation at 20,000×g for 10 minutes at 4° C. Immunoblotting was performed to determine changes in protein levels with an Odyssey CLx Imager. The indicated antibodies were employed including HA to monitor FKBP12^F36V-KRAS^G12V degradation and α-TUBULIN as a loading control.

[12] = system: FKBP12^F36V-EWS/FLI; assay: Immunoblotting of EWS502 FKBP12^F36V-EWS/FLI; EWS/FLI^−/− cells; conditions: dTAG-13 10-5000 nM, compound 1 50-5000 nM, 24 hrs, EWS502 cells
Procedure: (§5) EWS502 FKBP12^F36V-GFP and FKBP12^F36V-EWS/FLI; EWS/FLP^−/− cells were plated in 6-well format, allowed to adhere overnight, and treated with (10-5000 nM) dTAG-13 or (50-5000 nM) compound 1 for 24 hrs. Following treatment, cells were lysed in Cell Lysis Buffer (Cell Signaling Technology®) on ice for 60 minutes. Lysates were clarified by centrifugation at 20,000×g for 10 minutes at 4° C. Immunoblotting was performed to determine changes in protein levels upon incubation with the appropriate horseradish peroxidase-conjugated secondary antibodies. The indicated antibodies were employed including HA to monitor FKBP12^F36V-GFP or FKBP12^F36V-EWS/FLI degradation and Vinculin as a loading control.

[13] = system: FKBP12^F36V-KRAS^G12V; assay: Immunoblotting of 293T^VHL−/− FKBP12^F36V-KRAS^G12V cells; conditions: 50 or 500 nM, 24 hrs
Procedure: as §4

[14] = system: PATU-8902 LACZ-FKBP12^F36V clone; assay: Anti-proliferation via CellTiter-Glo, PATU-8902 LACZ-FKBP12^F36V control clone (Example 12); conditions: 0.000063-2 μM, 72 hrs
Procedure: as §2, with “format,” for “format in ultra-low attachment conditions,”, “adhere” for “form 3D-spheroids”, “72” for “120”, “viability,” for “transformation,”, “r.t.” for “room temperature”

[15] = system: PATU-8902 LACZ-FKBP12^F36V clone; assay: Cell transformation by growth in ultra-low attachment conditions, PATU-8902 LACZ-FKBP12^F36V control clone (Example 13); conditions: 0.000063-2 μM, 120 hrs
Procedure: as §2

[16] = system: FKBP12^F36V-GFP; assay: Immunoblotting of EWS502 FKBP12^F36V-GFP cells; conditions: dTAG-13 10-5000 nM, compound 1 50-5000 nM, 24 hrs
Procedure: as §5

| SMILES | pAKT levels (immunoblot) [1] | degradation of LACZ-FKBP12^F36V (immunoblot) [2] | loss of cell transformation (3D-spheroids, % DMSO control) [3] | pERK levels (immunoblot) [4] | anti-proliferative effects / loss of cell viability (% DMSO control) [5] | degradation of FKBP12^F36V-KRAS^G12V (immunoblot) [6] | anti-proliferative effects / loss of cell viability (% DMSO control) [7] | anti-proliferative effects on LACZ-FKBP12^F36V control clone [8] | anti-proliferative effects / loss of cell viability (% DMSO control) [9] | anti-proliferative effects on control cells [10] | degradation of FKBP12^F36V-KRAS^G12V in 293T^WT cells (immunoblot) [11] | degradation of FKBP12^F36V-EWS/FLI (immunoblot) [12] | degradation of FKBP12^F36V-KRAS^G12V in 293T^VHL−/− cells (immunoblot) [13] | anti-proliferative effects on LACZ-FKBP12^F36V control clone [14] | effects on cell transformation of LACZ-FKBP12^F36V control clone [15] | degradation of FKBP12^F36V-GFP (immunoblot) [16] |
| --- | --- | --- | --- | --- | --- | --- | --- | --- | --- | --- | --- | --- | --- | --- | --- | --- |
| CC[C@H](C(=O)N1CCCC[C@H]1C(=O)O[C@H](CCc1ccc(OC)c(OC)c1)c1ccccc1OCC(=O)NCCCCCCOc1cccc2c1C(=O)N(C1CCC(=O)N(C)C1=O)C2=O)c1cc(OC)c(OC)c(OC)c1 (stereo partly drawn) [Compound 5] | no effect | Lack of degradation; also recorded: no effect | little to no loss of viability; also recorded: limited toxicity at high doses | no effect | little to no loss of viability; also recorded: little to no toxicity | Lack of degradation; also recorded: no effect | – | – | – | – | – | – | – | – | – | – |
| CC[C@H](C(=O)N1CCCC[C@H]1C(=O)O[C@H](CCc1ccc(OC)c(OC)c1)c1ccccc1OCC(=O)NCCCCCCC(=O)N[C@H](C(=O)N1C[C@@H](O)C[C@@H]1C(=O)N[C@@H](C)c1ccc(-c2scnc2C)cc1)C(C)(C)C)c1cc(OC)c(OC)c(OC)c1 [Compound 2, (R)-3-(3,4-dimethoxyphenyl)-1-(2-(2-((7-(((S)-1-((2R,4S)-4-hydroxy-2-(((S)-1-(4-(4-methylthiazol-5-yl)phenyl)ethyl)carbamoyl)pyrrolidin-1-yl)-3,3-dimethyl-1-oxobutan-2-yl)amino)-7-oxoheptyl)amino)-2-oxoethoxy)phenyl)propyl (S)-1-((S)-2-(3,4,5-trimethoxyphenyl)butanoyl)piperidine-2-carboxylate] | no effect | Lack of degradation; also recorded: no effect | little to no loss of viability; also recorded: limited toxicity at high doses | no effect | little to no loss of viability; also recorded: little to no toxicity | Lack of degradation; also recorded: no effect | – | – | – | – | – | – | – | – | – | – |
| CC[C@H](C(=O)N1CCCC[C@H]1C(=O)O[C@H](CCc1ccc(OC)c(OC)c1)c1ccccc1OCC(=O)NCCOCCOCCOCC(=O)N[C@H](C(=O)N1C[C@H](O)C[C@H]1C(=O)N[C@@H](C)c1ccc(-c2scnc2C)cc1)C(C)(C)C)c1cc(OC)c(OC)c(OC)c1 [dTAG-63] | – | – | – | – | – | – | Effective loss of viability; also recorded: potent anti-proliferative effects | limited effects | Effective loss of viability; also recorded: potent anti-proliferative effects | Limited anti-proliferative effects | – | – | – | – | – | – |
| CC[C@H](C(=O)N1CCCC[C@H]1C(=O)O[C@H](CCc1ccc(OC)c(OC)c1)c1ccccc1OCC(=O)NCCCCCCOc1cccc2c1C(=O)N(C1CCC(=O)NC1=O)C2=O)c1cc(OC)c(OC)c(OC)c1 (stereo partly drawn) [dTAG-13, reference compound] | pronounced diminished levels | rapid degradation; also recorded: potent degradation | Effective loss of viability; also recorded: potent loss of cell transformation | pronounced diminished levels | Effective loss of viability; also recorded: potent anti-proliferative effects | potent degradation | Effective loss of viability; also recorded: potent anti-proliferative effects | limited effects | Effective loss of viability; also recorded: potent anti-proliferative effects | – | potent degradation | not | Degradation of mutant KRAS was observed; also recorded: potent degradation | limited effects | limited effects | Degradation of GFP (control) is observed; also recorded: potent degradation |
| CC[C@H](C(=O)N1CCCC[C@H]1C(=O)O[C@H](CCc1ccc(OC)c(OC)c1)c1ccccc1OCC(=O)NCCOCCOCCOCC(=O)N[C@H](C(=O)N1C[C@H](O)C[C@H]1C(=O)NCc1ccc(-c2scnc2C)cc1)C(C)(C)C)c1cc(OC)c(OC)c(OC)c1 [dTAG-12] | – | – | – | – | – | – | – | – | Effective loss of viability; also recorded: potent anti-proliferative effects | Limited anti-proliferative effects | – | – | – | – | – | – |
